{
  "source": "patent US10982337B2",
  "about": "“Corrosion inhibition” (SCHLUMBERGER TECHNOLOGY CORPORATION, priority 2015, dated 2021)",
  "key": {"[1]": {"experiment": "Corrosion weight loss test on steel coupons in HCl", "parameters": "Pitting Index: scale not given here", "description": "(§1) Such “acceptable” levels of corrosion are application-specific."}, "[2]": {"experiment": "Corrosion weight loss test on steel coupons in HCl", "quoted_text": "Experiments were carried out with coupons of the following steels: • 22Cr125 also designated 2205, a duplex alloy steel which is an iron-chromium-nickel-molybdenum alloy, used (among other things) to fabricate casing. • HS80™ (TradeMark of TENARIS), a low carbon steel used to fabricate coiled tubing. • N80, a medium carbon steel used to fabricate borehole casing. • 13Cr80, an alloy steel containing 13 wt % chromium without nickel, also used to fabricate borehole casing.\n(1) Metal Type: Duplex Stainless Steel 22Cr125 Casing (2205 b6); 4 mol/L HCl, T=80° C., 3 Hours Exposure"}, "[3]": {"experiment": "Marine algal growth inhibition test ISO 10253", "format": "cell-based, Skeletonema costatum", "conditions": "Skeletonema costatum, cultures of the marine alga Skeletonema costatum; algal growth inhibition, 72 h, WAF in sea water, 10-1000 mg/L tested", "description": "(§2) The acute toxicity of NMHQ to the marine algae Skeletonema costatum was tested. Cultures of the algae Skeletonema costatum were exposed to a series of concentrations of NMHQ. The test was carried out according to ISO protocol ‘ISO 10253 Water quality—Marine algal growth inhibition test with Skeletonema costatum and Phaeodactylum tricornutum’.\n(§3) In addition to blank, concentrations of 10, 100, 1000 mg/L (WAF) in sea water were tested."}, "Skeletonema costatum": {"tested_on": "Skeletonema costatum", "experiment": "Marine algal growth inhibition test ISO 10253", "format": "cell-based", "description": "as §2, §3"}, "[4]": {"experiment": "Rotating Cylinder Electrode electrochemistry, charge transfer resistance", "conditions": "5 mM inhibitor, 10 mM KI, 4 mol/L HCl, 2000 rpm, 80° C.; FIG. 6", "description": "(§4) EIS can be used to monitor the corrosion rate of a system. The parameter of interest is the charge transfer resistance, Rct, which can be thought of the ‘resistance’ to corrosion. A metal test piece is used as the working electrode in a three-electrode electrochemical cell with the corrosive solution as electrolyte. Impedance data is obtained by applying a small alternating voltage to the working electrode and measuring the resulting current to obtain a value of impedance. This is done at a range of frequencies. Then, in order to extract the parameter of interest, the metal/inhibitor/electrolyte interfaces are modelled as an electrical equivalent circuit and the theoretical impedance is fitted to the data. […] Charge transfer resistance, Rct, is measured. Charge transfer resistance, Rct is a measure for corrosion resistance, and is inversely proportional to corrosion rate (CR). Therefore 1/Rct is proportional to CR."}, "[5]": {"experiment": "Corrosion weight loss test on steel coupons in HCl", "parameters": "Pitting Index: scale not given here", "description": "as §1", "remark": "listed apart in the source"}, "[6]": {"experiment": "Corrosion weight loss test on steel coupons in HCl", "parameters": "Pitting Index: scale not given here", "description": "as §1", "remark": "listed apart in the source"}, "[7]": {"experiment": "Rotating Cylinder Electrode electrochemistry, charge transfer resistance", "conditions": "5 mM inhibitor, 10 mM KI, 4 mol/L HCl, 2000 rpm, 80° C.; FIG. 6", "description": "as §4", "remark": "listed apart in the source"}, "[8]": {"experiment": "Rotating Cylinder Electrode electrochemistry, charge transfer resistance", "conditions": "5 mM inhibitor, 10 mM KI, 4 mol/L HCl, 2000 rpm, 80° C.; FIG. 6", "description": "as §4", "remark": "listed apart in the source"}, "[9]": {"experiment": "Rotating Cylinder Electrode electrochemistry, charge transfer resistance", "conditions": "5 mM inhibitor, 10 mM KI, 4 mol/L HCl, 2000 rpm, 80° C.; FIG. 6", "description": "as §4", "remark": "listed apart in the source"}, "[10]": {"conditions": "0.3000 wt % (10.97 mmol/L), 4 mol/L HCl, 80° C., 3 hours"}},
  "data": [
    {"compound": "c1ccc2c(c1)CCCN2Cc1cccc2ccccc12", "note": "[NMTHQ]", "values": [
      {"measurement": "Pitting Index", "setting": "[1]; 0.1368 wt % (5.00 mmol/L), no KI, 4 mol/L HCl, 80° C., 3 hours", "value": 3},
      {"measurement": "Pitting Index", "setting": "[1]; 0.1389 wt % (5.08 mmol/L) + KI 10 mmol/L", "value": 0},
      {"measurement": "Pitting Index", "setting": "[1]; 0.2065 wt % (7.55 mmol/L), 4 mol/L HCl, 80° C., 3 hours", "value": 2},
      {"measurement": "Pitting Index", "setting": "[1]; [10]", "value": 0},
      {"measurement": "Pitting Index", "setting": "[1]; 0.3013 wt % (11.02 mmol/L), 4 mol/L HCl, 80° C., 3 hours", "value": 0},
      {"measurement": "Pitting Index", "setting": "[1]; 0.3017 wt % (11.04 mmol/L), 4 mol/L HCl, 80° C., 3 hours", "value": 0},
      {"measurement": "factor by which addition of 10 mM potassium iodide reduces the weight loss", "setting": "[1]; N80, NMTHQ 4.0-5.1 mmol/L", "value": 5.3},
      {"measurement": "Pitting Index", "setting": "[2]; 0.11 wt % (4.02 mmol/L) + KI 10 mmol/L, 2205 (b6)", "value": 0},
      {"measurement": "Pitting Index", "setting": "[2]; 0.11 wt % (4.02 mmol/L), no KI, 2205 b6, 4 mol/L HCl, 80° C., 3 hours", "value": 4},
      {"measurement": "Pitting Index", "setting": "[2]; 0.1367 wt % (5.00 mmol/L), KI 0, 2205 (b5)", "value": 4},
      {"measurement": "Pitting Index", "setting": "[2]; 0.1368 wt % (5.00 mmol/L) + KI 20 mmol/L, 2205 (b5)", "value": 0},
      {"measurement": "Pitting Index", "setting": "[2]; 0.1913 wt % (7.00 mmol/L), 2205 b6, 4 mol/L HCl, 80° C., 3 hours", "value": 3},
      {"measurement": "Pitting Index", "setting": "[2]; 0.30 wt % (10.97 mmol/L), 2205 b6, 4 mol/L HCl, 80° C., 3 hours", "value": 0},
      {"measurement": "Pitting Index", "setting": "[2]; 0.547 wt % (20.01 mmol/L), 2205 b6, 4 mol/L HCl, 80° C., 3 hours", "value": 0},
      {"measurement": "inhibition performance compared at equivalent molar concentrations (in words)", "setting": "[2]; 22Cr125, 4 mol/L HCl, 80° C., 3 hours", "value": "very similar to the known acid corrosion inhibitor NMQCl"},
      {"measurement": "factor by which addition of 10 mM potassium iodide reduces the weight loss", "setting": "[2]; 2205 (b6), NMTHQ 4.0-5.1 mmol/L", "value": 9.4},
      {"measurement": "EC50 at 72 h", "setting": "[3]", "value": "> 1000", "unit": "µg/mL"},
      {"measurement": "EC90 at 72 h", "setting": "[3]", "value": "> 1000", "unit": "µg/mL"},
      {"measurement": "NOEC(72 h)", "setting": "Skeletonema costatum; algal growth inhibition, 72 h, WAF in sea water, 10-1000 mg/L tested", "value": 1000, "unit": "mg/L"},
      {"measurement": "aquatic toxicity (in words)", "setting": "Skeletonema costatum; seawater under neutral conditions (pH 7.7-8.3)", "value": "zero aquatic toxicity"},
      {"measurement": "1/Rct (proportional to corrosion rate), NMHQ compared with NMQCl", "setting": "[4]", "value": "very similar results"},
      {"measurement": "Pitting Index", "setting": "[5]; 0.0055 wt % (0.20 mmol/L), 4 mol/L HCl, 80° C., 3 hours", "value": 5},
      {"measurement": "Pitting Index", "setting": "[5]; 0.0273 wt % (1.00 mmol/L), 4 mol/L HCl, 80° C., 3 hours", "value": 2},
      {"measurement": "Pitting Index", "setting": "[5]; 0.11 wt % (4.02 mmol/L), 4 mol/L HCl, 80° C., 3 hours", "value": 0},
      {"measurement": "Pitting Index", "setting": "[5]; 0.1366 wt % (5.00 mmol/L) + KI 10 mmol/L", "value": 0},
      {"measurement": "Pitting Index", "setting": "[5]; 0.1366 wt % (5.00 mmol/L), no KI, 4 mol/L HCl, 80° C., 3 hours", "value": 0},
      {"measurement": "Pitting Index", "setting": "[5]; 0.192 wt % (7.02 mmol/L), 4 mol/L HCl, 80° C., 3 hours", "value": 0},
      {"measurement": "factor by which addition of 10 mM potassium iodide reduces the weight loss", "setting": "[5]; HS80, NMTHQ 4.0-5.1 mmol/L", "value": 8.8},
      {"measurement": "Pitting Index", "setting": "[6]; 0.1367 wt % (5.00 mmol/L), no KI, 4 mol/L HCl, 80° C., 3 hours", "value": 4},
      {"measurement": "Pitting Index", "setting": "[6]; 0.1382 wt % (5.06 mmol/L) + KI 10 mmol/L", "value": 0},
      {"measurement": "Pitting Index", "setting": "[6]; [10]", "value": 0},
      {"measurement": "inhibition performance compared at equivalent molar concentrations (in words)", "setting": "[6]; 13Cr80, 4 mol/L HCl, 80° C., 3 hours", "value": "superior to the known acid corrosion inhibitor, NMQCl"},
      {"measurement": "factor by which addition of 10 mM potassium iodide reduces the weight loss", "setting": "[6]; 13Cr80, NMTHQ 4.0-5.1 mmol/L", "value": 10.5},
      {"measurement": "1/Rct (proportional to corrosion rate), NMHQ compared with NMQCl", "setting": "[7]", "value": "significant lower"},
      {"measurement": "1/Rct (proportional to corrosion rate), NMHQ compared with NMQCl", "setting": "[8]", "value": "more effective inhibitor"},
      {"measurement": "1/Rct (proportional to corrosion rate), NMHQ compared with NMQCl", "setting": "[9]", "value": "very similar results"}
    ]}
  ]
}
